{"source": "patent US10874743B2", "about": "“IRAK degraders and uses thereof” (Kymera Therapeutics, Inc., priority 2017, dated 2020)", "assay": "Pharmacokinetics in CD-1 mice (plasma concentrations, PK parameters)", "assay_type": "in vivo", "settings": "CD-1, mouse, plasma; for concentration at 5 min / concentration at 0.5 h / concentration at 1 h / concentration at 2 h / concentration at 4 h / concentration at 24 h: read-out: Concentration; for AUC(0-inf): read-out: AUCInf; for AUC(0-t): read-out: AUClast; for C0: read-out: C0; for MRT inf: read-out: MRTInf_obs; for Cmax: read-out: Cmax; for Tmax: read-out: Tmax", "procedure": "Pharmacokinetics for I-127, I-172 and I-210 were determined in Sprague Dawley rats or CD-1 mice by dosing intravenous (IV), subcutaneous (SC) or per oral (PO) using facility SOPs and sampling plasma at required time points. Species, formulation, route of administration and time points samples are listed below for each compound.\nCompounds were extracted from plasma, injected on reverse phase HPLC, eluted with a gradient from 5% to 95% acetonitrile in water and quantified by mass spectrometry with internal standard. Data are expressed in ng compound per mL of plasma.", "key": {"[1]": {"settings": "iv, 2 mg/kg, mouse (CD1) iv 2 mg/kg, Mean"}, "[2]": {"settings": "iv, 2 mg/kg, mouse (CD1) iv 2 mg/kg, individual Mouse 1-3"}, "[3]": {"settings": "po, 30 mg/kg, mouse (CD1) po 30 mg/kg, Mean"}, "[4]": {"settings": "po, 30 mg/kg, mouse (CD1) po 30 mg/kg, individual Mouse 4-6"}, "[5]": {"settings": "sc, 30 mg/kg, mouse (CD1) sc 30 mg/kg, Mean"}, "[6]": {"settings": "sc, 30 mg/kg, mouse (CD1) sc 30 mg/kg, individual Mouse 7-9"}}, "note": "Where two headings read alike, the source gives them in different places."}
{"smiles": "O=C1CCC(N2C(=O)c3cccc(NCCOCCOCCNCc4ccc(-n5cc(NC(=O)c6coc(-c7ccnc(NCC8CC8)c7)n6)c(C(F)F)n5)cc4)c3C2=O)C(=O)N1", "note": "(stereo not drawn) [I-210, 2-[2-(Cyclopropylmethylamino)-4-pyridyl]-N-[3-(difluoromethyl)-1-[4-[[2-[2-[2-[[2-(2,6-dioxo-3-piperidyl)-1,3-dioxoisoindolin-4-yl]amino]ethoxy]ethoxy]ethylamino]methyl]phenyl]pyrazol-4-yl]oxazole-4-carboxamide]", "values": [{"measurement": "concentration at 5 min", "setting": "[1]", "value": 589, "unit": "ng/mL"}, {"measurement": "concentration at 5 min", "setting": "[2]", "value": 579, "unit": "ng/mL"}, {"measurement": "concentration at 0.25 h", "setting": "[1]", "value": 390, "unit": "ng/mL"}, {"measurement": "concentration at 0.25 h", "setting": "[2]", "value": 364, "unit": "ng/mL"}, {"measurement": "concentration at 0.5 h", "setting": "[1]", "value": 283, "unit": "ng/mL"}, {"measurement": "concentration at 0.5 h", "setting": "[2]", "value": 306, "unit": "ng/mL"}, {"measurement": "concentration at 1 h", "setting": "[1]", "value": 193, "unit": "ng/mL"}, {"measurement": "concentration at 1 h", "setting": "[2]", "value": 220, "unit": "ng/mL"}, {"measurement": "concentration at 2 h", "setting": "[1]", "value": 90.8, "unit": "ng/mL"}, {"measurement": "concentration at 2 h", "setting": "[2]", "value": 89.3, "unit": "ng/mL"}, {"measurement": "concentration at 4 h", "setting": "[1]", "value": 26.1, "unit": "ng/mL"}, {"measurement": "concentration at 4 h", "setting": "[2]", "value": 32.5, "unit": "ng/mL"}, {"measurement": "concentration at 8 h", "setting": "[1]", "value": 5.19, "unit": "ng/mL"}, {"measurement": "concentration at 8 h", "setting": "[2]", "value": 5.72, "unit": "ng/mL"}, {"measurement": "half-life", "setting": "[1]", "value": 1.49, "unit": "h"}, {"measurement": "AUC(0-inf)", "setting": "[1]", "value": 672, "unit": "ng·h/mL"}, {"measurement": "AUC(0-t)", "setting": "[1]", "value": 661, "unit": "ng·h/mL"}, {"measurement": "C0", "setting": "[1]", "value": 726, "unit": "ng/mL"}, {"measurement": "MRT inf", "setting": "[1]", "value": 1.5, "unit": "h"}, {"measurement": "half-life", "setting": "[2]", "value": 1.52, "unit": "h"}, {"measurement": "AUC(0-inf)", "setting": "[2]", "value": 714, "unit": "ng·h/mL"}, {"measurement": "AUC(0-t)", "setting": "[2]", "value": 701, "unit": "ng·h/mL"}, {"measurement": "C0", "setting": "[2]", "value": 730, "unit": "ng/mL"}, {"measurement": "MRT inf", "setting": "[2]", "value": 1.58, "unit": "h"}, {"measurement": "concentration at 0.25 h", "setting": "[3]", "value": 30.8, "unit": "ng/mL"}, {"measurement": "concentration at 0.5 h", "setting": "[3]", "value": 55, "unit": "ng/mL"}, {"measurement": "concentration at 1 h", "setting": "[3]", "value": 72, "unit": "ng/mL"}, {"measurement": "concentration at 2 h", "setting": "[3]", "value": 127, "unit": "ng/mL"}, {"measurement": "concentration at 2 h", "setting": "[4]", "value": 177, "unit": "ng/mL"}, {"measurement": "concentration at 4 h", "setting": "[3]", "value": 120, "unit": "ng/mL"}, {"measurement": "concentration at 4 h", "setting": "[4]", "value": 92.5, "unit": "ng/mL"}, {"measurement": "concentration at 8 h", "setting": "[3]", "value": 22.8, "unit": "ng/mL"}, {"measurement": "half-life", "setting": "[3]", "value": 2.27, "unit": "h"}, {"measurement": "AUC(0-inf)", "setting": "[3]", "value": 753, "unit": "ng·h/mL"}, {"measurement": "AUC(0-t)", "setting": "[3]", "value": 676, "unit": "ng·h/mL"}, {"measurement": "Cmax", "setting": "[3]", "value": 148, "unit": "ng/mL"}, {"measurement": "MRT inf", "setting": "[3]", "value": 4.14, "unit": "h"}, {"measurement": "Tmax", "setting": "[3]", "value": 3.33, "unit": "h"}, {"measurement": "half-life", "setting": "[4]", "value": 2.59, "unit": "h"}, {"measurement": "AUC(0-inf)", "setting": "[4]", "value": 917, "unit": "ng·h/mL"}, {"measurement": "AUC(0-t)", "setting": "[4]", "value": 786, "unit": "ng·h/mL"}, {"measurement": "Cmax", "setting": "[4]", "value": 177, "unit": "ng/mL"}, {"measurement": "MRT inf", "setting": "[4]", "value": 4.22, "unit": "h"}, {"measurement": "Tmax", "setting": "[4]", "value": 2, "unit": "h"}, {"measurement": "concentration at 0.25 h", "setting": "[5]", "value": 79.3, "unit": "ng/mL"}, {"measurement": "concentration at 0.25 h", "setting": "[6]", "value": 74.8, "unit": "ng/mL"}, {"measurement": "concentration at 0.5 h", "setting": "[5]", "value": 85, "unit": "ng/mL"}, {"measurement": "concentration at 0.5 h", "setting": "[6]", "value": 88.8, "unit": "ng/mL"}, {"measurement": "concentration at 1 h", "setting": "[5]", "value": 97, "unit": "ng/mL"}, {"measurement": "concentration at 1 h", "setting": "[6]", "value": 107, "unit": "ng/mL"}, {"measurement": "concentration at 2 h", "setting": "[5]", "value": 95, "unit": "ng/mL"}, {"measurement": "concentration at 2 h", "setting": "[6]", "value": 90, "unit": "ng/mL"}, {"measurement": "concentration at 4 h", "setting": "[5]", "value": 98, "unit": "ng/mL"}, {"measurement": "concentration at 4 h", "setting": "[6]", "value": 95.9, "unit": "ng/mL"}, {"measurement": "concentration at 8 h", "setting": "[5]", "value": 43.5, "unit": "ng/mL"}, {"measurement": "concentration at 8 h", "setting": "[6]", "value": 39.6, "unit": "ng/mL"}, {"measurement": "concentration at 24 h", "setting": "[5]", "value": 2.85, "unit": "ng/mL"}, {"measurement": "concentration at 24 h", "setting": "[6]", "value": 3.62, "unit": "ng/mL"}, {"measurement": "half-life", "setting": "[5]", "value": 3.96, "unit": "h"}, {"measurement": "AUC(0-inf)", "setting": "[5]", "value": 1040, "unit": "ng·h/mL"}, {"measurement": "AUC(0-t)", "setting": "[5]", "value": 1020, "unit": "ng·h/mL"}, {"measurement": "Cmax", "setting": "[5]", "value": 109, "unit": "ng/mL"}, {"measurement": "MRT inf", "setting": "[5]", "value": 5.87, "unit": "h"}]}
